Legend:
[1] = test system: galactitol levels in the lens of galactosemic subjects; experiment: galactitol levels in the lens of galactosemic subjects; assay type: in vivo, rats; settings: summary statement, no dose given
Method: (§1) The activity of the compounds of the present invention, as agents for the control of chronic diabetic complications, is determined by their ability to successfully pass one or more of the following standard biologically and/or pharmacological tests, viz., (1) measuring their ability to reduce or inhibit sorbitol accumulation in the sciatic nerve of acutely streptozotocinized (i.e., diabetic) rats; (2) measuring their ability to reverse already-elevated sorbitol levels in the sciatic nerve and lens of chronic streptozotocin-induced diabetic rats; (3) measuring their ability to prevent or inhibit galactitol formation in the lens of acutely galactosemic rats, and (4) measuring their ability to delay cataract formation and reduce the severity of lens opacities in chronic galactosemic rats.

[2] = test system: sorbitol accumulation in the sciatic nerve of streptozotocinized (i.e., diabetic) rats; experiment: sorbitol accumulation in the sciatic nerve of streptozotocinized (diabetic) rats; assay type: in vivo
Method: as §1
The final product of Example 1, viz., 3',4'-dihydro-spiro-[imidazolidine-4,1'(2'H)naphthalene]-5-one, was tested for its ability to reduce or inhibit sorbitol accumulation in the sciatic nerve of streptozotocinized (i.e., diabetic rats) by the procedure essentially described in U.S. Pat. No. 3,821,383. In the present study, the amount of sorbitol accumulation in the sciatic nerves was measured 27 hours after the induction of diabetes. The compound was then administered orally at 25 mg./kg. at intervals of 4, 8 and 24 hours after the administration of streptozotocin. The results obtained in this manner are clearly presented in terms of the percent inhibition (%) afforded by the test compound as compared to the case where no compound was administered (i.e., the control or untreated animal where sorbitol levels normally rise from approximately […]. tissue to as high as 400 mM/g. tissue in the 27-hour test period).

O=C1NCNC12CCCc1ccccc12 (stereo not shown) [Example 1, 3',4'-dihydro-spiro-[imidazolidine-4,1'(2'H)naphthalene]-5-one] was tested, and the “lowering galactitol levels in the lens of galactosemic subjects” value [1] was “remarkably effective”, the “percent inhibition of sorbitol accumulation in the sciatic nerve” value ([2]; diabetic rats, oral 25 mg./kg. at 4, 8 and 24 hours after streptozotocin, sorbitol measured 27 hours after induction of diabetes, vs untreated control) was 52% and the “signs of toxic side effects” value ([2]; diabetic rats, oral route, dose level of 25 mg./kg.) was “without showing any substantial signs of toxic side effects”. The “lowering sorbitol levels in the lens and sciatic nerve of diabetic subjects” value ([2]; summary statement, no dose given) was “remarkably effective”.

From US4283409A, “Imidazolone derivatives” (Pfizer Inc., priority 1979, dated 1981)
